Results reported in US8343475B2, “Small cationic antimicrobial peptides” (priority 2006, dated 2013).
≈ marks a conversion by molar mass, not a printed value. Residues, ends and D or L forms follow the SMILES beside them. No end group written: not given here.

Assays:
[1] = system: LPS-stimulated TNFα production in THP-1 cells; experiment: Suppression of P. aeruginosa LPS-stimulated TNFα production (ELISA); format: cell-based, human; settings: for ability to inhibit TNFα responses compared with indolicidin: 10 ng/ml P. aeruginosa LPS, peptides at 10, 20 and 50 μg/ml (FIG. 13)
Method: FIG. 12. Assessment of the ability of peptides to suppress P. aeruginosa LPS (10 ng/ml)-stimulated TNFα production in THP1 cells. Presented results are the mean values for 4 wells performed on 2 separate occasions. The x-axis number labeling is the amount of each peptide in μg/ml for the corresponding peptides.
FIG. 13. Suppression of inflammatory responses by peptides. Monocyte/macrophage-like adherent THP-1 cells were stimulated with 10 ng/ml P. aeruginosa LPS and the resulting TNFα response measured. Peptides were added at 10, 20 and 50 μg/ml. The observed TNF-release was measured by ELISA and related to the 100% value of the untreated (without peptide) cells.
Cytotoxicity and TNFα suppression assay. THP1 cells were cultured in RPMI 1640 medium (supplemented with 10% (v/v) FCS, 1% L-glutamine, and […] sodium pyruvate) in E-toxa-clean (Sigma-Aldrich, Oakville, Ontario, Canada)-washed, endotoxin-free bottle. THP1 cells were counted and 250 μl per well of […] were transferred into a 96 well tissue cultured treated polystyrene microtiterplate (Beckton Dickinson, Franklin Lakes, USA). In addition PMA were added (1.3 nM) and the cells were incubated for three days. After three days the medium were exchanged and Pseudomonas aeruginosa LPS and the peptides were added. The incubation time was four hours and the supernatant was frozen at −20° C. The cells were stained with Tryphan Blue for 2 minutes and washed with PBS two times. The viability of the cells was determined by counting the stained cells over the unstained. The supernatent was used to measure the TNFα production by an ELISA (eBioscience, San Diego, USA) following the manufactures protocol.
LPS from P. aeruginosa strain H103 was highly purified free of proteins and lipids using the Darveau-Hancock method. Briefly, P. aeruginosa was grown overnight in LB broth at 37° C. Cells were collected and washed and the isolated LPS pellets were extracted with a 2:1 chloroform:methanol solution to remove contaminating lipids. Purified LPS samples were quantitated using an assay for the specific sugar 2-keto-3-deoxyoctosonic acid (KDO assay) and then resuspended in endotoxin-free water (Sigma-Aldrich).
Human monocytic cells, THP-1, were obtained from American type culture collection, ATCC® (TIB-202) and were grown in suspension in RPMI-1640 media (Gibco®, Invitrogen™ Life technologies, Burlington, ON), supplemented with 10% (v/v) heat inactivated fetal bovine serum (FBS), 2 mM L-glutamine and 1 mM sodium pyruvate (all from Invitrogen Life Technologies). Cultures were maintained at 37° C. in a humidified 5% (v/v) CO2 incubator up to a maximum of six passages. THP-1 cells at a density of 1×10^6 cells/ml were treated with 0.3 μg/ml phorbol 12-myristate 13-acetate (PMA; Sigma-Aldrich Canada, Oakville ON) for 24 hours, inducing plastic-adherent cells that were further rested in complete RPMI-1640 medium for an additional 24 hours prior to stimulation with various treatments including P. aeruginosa LPS (10 ng/ml) with or without peptides for 24 hours after which supernatants were collected and TNFα assessed by ELISA.
THP-1 cells were stimulated with LPS (10 ng/ml) with or without peptide (10 or 100 μg/ml) for 4 hours as indicated in the results section. Following incubation of the cells under various treatment regimens, the tissue culture supernatants were centrifuged at 1000×g for 5 min, then at 10,000×g for 2 min to obtain cell-free samples. Supernatants were aliquoted and then stored at −20° C. prior to assay for various cytokines. TNFα secretion was detected with a capture ELISA (eBioscience and BioSource International Inc., CA, USA respectively).

[2] = system: Pseudomonas aeruginosa PAO1 strain H103; format: cell-based; settings: PAO1
Method in brief: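 Modified broth microdilution MIC in Mueller Hinton medium, peptides diluted in 0.01% acetic acid/0.2% BSA, polypropylene plates. Inoculum 2-7×10^5 CFU/ml, overnight at 37 °C; MIC is the lowest concentration with no visible growth.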

[3] = system: Enterococcus faecalis ATCC29212; format: cell-based; settings: ATCC29212
Method in brief: (§1)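 Modified microdilution, MH broth, polypropylene wells. Peptide dilutions (10× stocks in 0.01% HOAc/0.2% BSA) mixed 1:10 with medium; cells 2-7×10^5 CFU/ml; 37° C overnight; endpoint no growth.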

Escherichia coli UB1005 = format: cell-based; settings: indolicidin substitution variants (Table 4)
Method in brief: as §1

[4] = system: Staphylococcus aureus ATCC25923; format: cell-based; settings: ATCC25923
Method in brief: as §1

[5] = system: clinical isolate of Staphylococcus epidermidis; format: cell-based; settings: clinical isolate of
Method in brief: as §1

[6] = system: lab isolate of Candida albicans; format: cell-based; settings: lab isolate of
Method in brief: as §1

[7] = system: wild-type Salmonella enterica ssp. typhimurium; format: cell-based
Method in brief: as §1

[8] = system: clinical isolates of MRSA; format: cell-based, Staphylococcus aureus
Method in brief: (§2)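 Modified broth microdilution in Mueller Hinton medium, peptides serially diluted in 0.01% acetic acid with 0.2% BSA in polypropylene plates. Inoculum 2-7×10^5 CFU/ml, overnight incubation at 37° C; MIC taken as lowest concentration with no visible growth.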

ESBL E. cloacae = format: cell-based, Enterobacter cloacae
Method in brief: as §2

[9] = system: Liverpool Epidemic Strains; format: cell-based, Pseudomonas aeruginosa
Method in brief: as §2

[10] = system: multidrug resistant Brazilian clinical isolates of P. aeruginosa; format: cell-based, Pseudomonas aeruginosa
Method in brief: as §2

[11] = system: MCP-1 release by human PBMC; experiment: Chemokine induction in PBMC (capture ELISA); format: cell-based; settings: background (204) subtracted
Method in brief: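 Heparinized blood from healthy volunteers; Ficoll-isolated human PBMC (7.5×10^5) treated with peptides at 20 or 100 μg/ml for 24 hours at 37° C, 5% CO2. Cell-free supernatants assayed for MCP-1 by capture ELISA.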

[12] = system: MCP-3 release by human PBMC; experiment: Chemokine induction in PBMC (capture ELISA); format: cell-based; settings: background (6) subtracted
Method in brief: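 Human PBMC from healthy donors (Ficoll-isolated), 7.5×10^5 cells at 0.75–1×10^6 cells/ml, treated with peptides at 20 or 100 μg/ml for 24 h at 37° C, 5% CO2. MCP-3 in cell-free supernatants measured by capture ELISA.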

[13] = system: CXCL1 (Gro-α) release by human PBMC; experiment: Chemokine induction in PBMC (capture ELISA); format: cell-based; settings: background (196) subtracted
Method in brief: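 Human PBMC from healthy donors' heparinised blood (Ficoll), 7.5×10^5 cells treated with 20 or 100 μg/ml peptide for 24 h at 37° C, 5% CO2. Cell-free supernatants assayed for CXCL1 by capture ELISA.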

[14] = system: ESBL E. coli clinical strain 64771; format: cell-based; settings: ESBL clinical strain 64771
Method in brief: (§3)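 Broth microdilution in Mueller Hinton medium, peptides serially diluted in 0.01% acetic acid with 0.2% BSA in polypropylene plates. Inoculum 2-7×10^5 CFU/ml, incubated overnight at 37° C. MIC is the lowest concentration with no visible growth.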

[15] = system: ESBL Klebsiella pneumonia clinical strain 63575; format: cell-based
Method in brief: as §3

[16] = system: multidrug resistant Pseudomonas maltophilia ATCC13637; format: cell-based
Method in brief: as §3

| Compound | ability to inhibit TNFα responses compared with indolicidin [1] | MIC P. aerug [2] [µg/mL] | MIC E. faecalis [3] [µg/mL] | MIC E. coli (Escherichia coli UB1005) [µg/mL] | MIC S. aureus [4] [µg/mL] | MIC S. epi. [5] [µg/mL] | MIC C. albicans [6] [µg/mL] | MIC S. typhi [7] [µg/mL] | further results |
| --- | --- | --- | --- | --- | --- | --- | --- | --- | --- |
| HH1011: peptide derived from indolicidin; sequence not in the text shown (RWRWWRWRR-NH2) | slightly better or equivalent than indolicidin | – | – | – | – | – | – | – | – |
| HH1010: peptide derived from indolicidin; sequence not in the text shown (ILRWKWRWWRWRR-NH2) | slightly better or equivalent than indolicidin | – | – | – | – | – | – | – | – |
| CC[C@H](C)[C@H](N)C(=O)N[C@@H](CC(C)C)C(=O)N1CCC[C@H]1C(=O)N[C@@H](Cc1c[nH]c2ccccc12)C(=O)N[C@@H](Cc1c[nH]c2ccccc12)C(=O)N[C@@H](Cc1c[nH]c2ccccc12)C(=O)N1CCC[C@H]1C(=O)N[C@@H](Cc1c[nH]c2ccccc12)C(=O)N[C@@H](Cc1c[nH]c2ccccc12)C(=O)N1CCC[C@H]1C(=O)N[C@@H](Cc1c[nH]c2ccccc12)C(=O)N[C@@H](CCCNC(=N)N)C(=O)N[C@@H](CCCNC(=N)N)C(N)=O [HH235, ILPWWWPWWPWRR] (H-ILPWWWPWWPWRR-NH2; N-terminus assumed) | slightly better or equivalent than indolicidin | >84 | 84 (≈ 42.8 µM) | >84 | 20 (≈ 10.2 µM) | 5 (≈ 2.55 µM) | 84 (≈ 42.8 µM) | >84 | – |
| LL-37 [reference compound] | – | – | – | – | – | – | – | – | suppression of LPS-induced TNFα ([1]; P. aeruginosa LPS 10 ng/ml (FIG. 12)): strongly suppressed |
| CC[C@H](C)[C@H](N)C(=O)N[C@@H](CC(C)C)C(=O)N1CCC[C@H]1C(=O)N[C@@H](Cc1c[nH]c2ccccc12)C(=O)N[C@@H](CCCCN)C(=O)N[C@@H](Cc1c[nH]c2ccccc12)C(=O)N1CCC[C@H]1C(=O)N[C@@H](Cc1c[nH]c2ccccc12)C(=O)N[C@@H](Cc1c[nH]c2ccccc12)C(=O)N[C@@H](CCCCN)C(=O)N[C@@H](Cc1c[nH]c2ccccc12)C(=O)N[C@@H](CCCNC(=N)N)C(=O)N[C@@H](CCCNC(=N)N)C(N)=O [HH117, ILPWKWPWWKWRR] (H-ILPWKWPWWKWRR-NH2; N-terminus assumed) | slightly better or equivalent than indolicidin | 16 (≈ 8.26 µM) | 31 (≈ 16 µM) | 8 (≈ 4.13 µM) | 8 (≈ 4.13 µM) | 2 (≈ 1.03 µM) | 16 (≈ 8.26 µM) | 31 (≈ 16 µM) | – |
| CC[C@H](C)[C@H](N)C(=O)N[C@@H](CC(C)C)C(=O)N1CCC[C@H]1C(=O)N[C@@H](Cc1c[nH]c2ccccc12)C(=O)N[C@@H](CCCCN)C(=O)N[C@@H](Cc1ccccc1)C(=O)N1CCC[C@H]1C(=O)N[C@@H](Cc1c[nH]c2ccccc12)C(=O)N[C@@H](Cc1c[nH]c2ccccc12)C(=O)N1CCC[C@H]1C(=O)N[C@@H](Cc1c[nH]c2ccccc12)C(=O)N[C@@H](CCCNC(=N)N)C(=O)N[C@@H](CCCNC(=N)N)C(N)=O [HH63, ILPWKFPWWPWRR] (H-ILPWKFPWWPWRR-NH2; N-terminus assumed) | slightly better or equivalent than indolicidin | 62 (≈ 33.2 µM) | 31 (≈ 16.6 µM) | 16 (≈ 8.57 µM) | 8 (≈ 4.28 µM) | 4 (≈ 2.14 µM) | 16 (≈ 8.57 µM) | 31 (≈ 16.6 µM) | – |
| CC[C@H](C)[C@H](NC(=O)[C@H](Cc1c[nH]c2ccccc12)NC(=O)[C@H](Cc1c[nH]c2ccccc12)NC(=O)[C@H](CCCCN)NC(=O)[C@H](CC(C)C)NC(=O)[C@H](CCCNC(=N)N)NC(=O)[C@H](CCCCN)NC(=O)[C@@H](N)CCCNC(=N)N)C(=O)N[C@@H](Cc1ccc(O)cc1)C(N)=O [HHC66, RKRLKWWIY] (H-RKRLKWWIY-NH2; N-terminus assumed) | – | – | – | – | – | – | – | – | MIC against P. aeruginosa PAO1 [2]: 4 to 12 µM; MIC [3]: 50 µM (≈ 67.4 µg/mL); MIC [4]: 6 µM (≈ 8.09 µg/mL); MIC [8]: 6 µM (≈ 8.09 µg/mL); MIC (ESBL E. cloacae): 13 µM (≈ 17.5 µg/mL); MIC [9]: 6 µM (≈ 8.09 µg/mL); MIC [10]: 50 µM (≈ 67.4 µg/mL); Chemokine induction MCP-1 ([11]; 20 μg/ml peptide): 351 pg/mL; Chemokine induction MCP-1 ([11]; 100 μg/ml peptide): 355 pg/mL; Chemokine induction MCP-3 ([12]; 20 μg/ml peptide): 0 pg/mL; Chemokine induction MCP-3 ([12]; 100 μg/ml peptide): 0 pg/mL; Chemokine induction Gro-α ([13]; 20 μg/ml peptide): -12 pg/mL; Chemokine induction Gro-α ([13]; 100 μg/ml peptide): -23 pg/mL; MIC [14]: 6 µM (≈ 8.09 µg/mL); MIC [15]: 50 µM (≈ 67.4 µg/mL); MIC [16]: 3 µM (≈ 4.04 µg/mL) |
